In PubChem BioAssay (NCI):
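Compound exposure: 48 hours, 5 concentrations, 96-well plates. TGI: total growth inhibition.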

What was measured:
Assay in all cases: growth of human tumour cells (NCI), 48 h
SF-295 CNS = tested on: SF-295 CNS
U251 CNS = tested on: U251 CNS
DLD-1 colon = tested on: DLD-1 colon
DMS 114 small cell lung = tested on: DMS 114 small cell lung
HOP-62 NSCLC = tested on: HOP-62 NSCLC
OVCAR-4 ovarian = tested on: OVCAR-4 ovarian
LXFL 529 NSCLC = tested on: LXFL 529 NSCLC
OVCAR-5 ovarian = tested on: OVCAR-5 ovarian
SK-MEL-2 melanoma = tested on: SK-MEL-2 melanoma
SF-539 CNS = tested on: SF-539 CNS
HCT-15 colon = tested on: HCT-15 colon
KM20L2 colon = tested on: KM20L2 colon
SNB-75 CNS = tested on: SNB-75 CNS
SK-OV-3 ovarian = tested on: SK-OV-3 ovarian
IGROV1 ovarian = tested on: IGROV1 ovarian
A549 NSCLC = tested on: A549 NSCLC
MALME-3M melanoma = tested on: MALME-3M melanoma
M19-MEL melanoma = tested on: M19-MEL melanoma
NCI-H460 lung = tested on: NCI-H460 lung
UACC-257 melanoma = tested on: UACC-257 melanoma
SK-MEL-5 melanoma = tested on: SK-MEL-5 melanoma
HCC-2998 colon = tested on: HCC-2998 colon
M14 melanoma = tested on: M14 melanoma
HCT-116 colon = tested on: HCT-116 colon
OVCAR-3 ovarian = tested on: OVCAR-3 ovarian
TK-10 renal = tested on: TK-10 renal
KM12 colon = tested on: KM12 colon
HOP-18 NSCLC = tested on: HOP-18 NSCLC
SNB-78 CNS = tested on: SNB-78 CNS
RXF 393 renal = tested on: RXF 393 renal
SF-268 CNS = tested on: SF-268 CNS
RPMI-8226 leukemia = tested on: RPMI-8226 leukemia
UACC-62 melanoma = tested on: UACC-62 melanoma
786-0 renal = tested on: 786-0 renal
SK-MEL-28 melanoma = tested on: SK-MEL-28 melanoma
CAKI-1 renal = tested on: CAKI-1 renal
MOLT-4 leukemia = tested on: MOLT-4 leukemia
HT29 colon = tested on: HT29 colon
UO-31 renal = tested on: UO-31 renal
HL-60(TB) leukemia = tested on: HL-60(TB) leukemia
SW-620 colon = tested on: SW-620 colon
EKVX NSCLC = tested on: EKVX NSCLC
DMS 273 small cell lung = tested on: DMS 273 small cell lung
OVCAR-8 ovarian = tested on: OVCAR-8 ovarian
NCI-H522 lung = tested on: NCI-H522 lung
NCI-H226 lung = tested on: NCI-H226 lung
A498 renal = tested on: A498 renal
CCRF-CEM leukemia = tested on: CCRF-CEM leukemia
NCI-H23 lung = tested on: NCI-H23 lung
COLO 205 colon = tested on: COLO 205 colon
SNB-19 CNS = tested on: SNB-19 CNS
LOX IMVI melanoma = tested on: LOX IMVI melanoma
K-562 leukemia = tested on: K-562 leukemia
HOP-92 NSCLC = tested on: HOP-92 NSCLC
RXF-631 renal = tested on: RXF-631 renal
SR leukemia = tested on: SR leukemia
SN12C renal = tested on: SN12C renal
XF 498 CNS = tested on: XF 498 CNS
ACHN renal = tested on: ACHN renal

Measured: TGI

O=C(O)c1ccc(C2C(=O)N[C@@H]3CCC[C@H]23)cc1 (some centres not stated)
not listed: HOP-92 NSCLC | RXF-631 renal | SR leukemia | SN12C renal | XF 498 CNS | ACHN renal
> 100 µM: all other assays above

Cc1ccccc1NC(=O)C1C(=O)N(c2ccccc2C)C(=O)/C1=N\NC(N)=S (configuration not stated)
not listed: DMS 114 small cell lung | HOP-62 NSCLC | OVCAR-4 ovarian | OVCAR-5 ovarian | HCT-15 colon | M19-MEL melanoma | NCI-H460 lung | SK-MEL-5 melanoma | HCC-2998 colon | HOP-18 NSCLC | SNB-78 CNS | RXF 393 renal | OVCAR-8 ovarian | A498 renal | COLO 205 colon
> 100 µM: all other assays above
